Laboratory results as given in patent US20080119530A1, “Method for treatment and prevention of ultraviolet light induced skin pathologies” (priority 2006, published 2008).
Marks after values point to notes of the source that are not given here.

Tested on: skin
Assay: Affymetrix microarray analysis of gene expression in mouse skin
Format: in vivo
From the text: Adult female CD-1 mice were maintained in our animal facility and provided with Purina lab chow (Nestlé Purina PetCare, St. Louis, Mo.) and water ad libitum. The dorsal skin was clipped one day before treatment and shaved with a Remington Microscreen shaver (Wahl, Sterling, II) on the day of treatment. […] UVB TL 40W/12 RS bulbs (Philips, Somerset, N.J.) were used that emitted approximately 30% UV-A, 70% UV-B and <1% UV-C, with a total output of 470 μW/cm^2, as measured with radiometric photodetector probes (Newport, Irvine, Calif.). Skin-fold thickness was measured using calipers to lightly pinch the dorsal skin. All animal procedures were approved by our Institutional Animal Care and Use Committee.
Microarray Analysis. Flash frozen skin was ground to a powder using a mortar and pestle and RNA extracted using a PowerGen 700 tissue homogenizer (Fisher, Hampton, N.H.) in TRIzol reagent (Invitrogen, Carlsbad, Calif.) according to the manufacturer's protocol. Total RNA was further purified using RNeasy Midi Columns according to the manufacturer's protocol (Qiagen, Valencia, Calif.). The quality of the RNA was assessed using an RNA 6000 Pico Assay (Aligent, Palo Alto, Calif.) with a Bioanalyzer (Agilent, Palo Alto, Calif.). Mouse MOE430A gene chips were purchased from Affymetrix (Santa Clara, Calif.). Five micrograms of total RNA from each sample was reverse transcribed using Superscript II (Invitrogen, Carlsbad, Calif.). In vitro transcription to generate biotinylated cRNA was performed using the Bioarray High Yield RNA Transcript Labeling kit (Enzo Diagnostics, Farmingdale, N.Y.). Fifteen micrograms of fragmented cRNA was hybridized for 16 h to mouse MOE430A chips at 45° C. using the Affymetrix 640 hybridization oven, stained, and scanned using the Agilent scanner according to standard Affymetrix protocols. Signal intensities from the Affymetrix “.CEL” files were derived using GeneChip Operating Software v1.2 (Affymetrix, Santa Clara, Calif.), multiplicative model-based expression index (dChip software)^19 and robust multi-array average^20. The data discussed in this publication have been deposited in NCBIs Gene Expression Omnibus (GEO) and are accessible through GEO Series accession number GSE4066. Methods employed to determine significant changes in gene expression from the derived signal intensities were Rank Products (RP)21, Significance Analysis of Microarrays (SAM)^22, Analysis of Variance (ANOVA), Student's t-test, and fold-change. […] Hierarchical clustering of gene expression was performed with dChip software. […] Significant clustering was also found among samples 6 h after UV and among samples 24 h after UV. Furthermore, significant clustering was found among samples treated with DMSO and among those treated with AG825. Scatter plots were generated using GeneChip Operating Software. Self-Organizing Maps were generated using GeneCluster 2.0 software^23. Grouping of genes into biological processes was performed using NetAffx Analysis Center and literature searches. Genes were mapped into biological networks with Pathways Analysis software (Ingenuity Systems, Mountain View, Calif.). Promoter Analysis and Interaction Network Toolset v3.3 (PAINT) was used to scan sequences up to 2000 base pair upstream of genes with altered expression to search for transcription factor binding sequences or transcriptional response elements (TRE) using a 0.95 core similarity threshold^24.
The influence of Erbb2 on gene expression following UV exposure was assessed using microarray analysis. […] Mice were exposed to UV twice because previous results indicated the influence of Erbb receptors on the response of the skin to UV increases with multiple exposures (22). […] In two randomly selected vehicle-treated and sham-irradiated mice, 8 genes out of approximately 13,000 detected (<0.1%) were expressed with more than a 5-fold difference between them. […]

[1] = Adhesion and Migration, 6 h post-UV
[2] = Adhesion and Migration, 24 h post-UV
[3] = Cell Communication, 6 h post-UV
[4] = Cell Communication, 24 h post-UV
[5] = Pigment Biosynthesis, 6 h post-UV
[6] = Pigment Biosynthesis, 24 h post-UV

COc1cc(/C=C(\C#N)C(N)=O)cc(CSc2nc3ccccc3s2)c1O [AG825]
number of genes with altered expression (6 h after UV): 218 | share of the altered genes with increased expression (6 h after UV): 61% | number of genes with altered expression (24 h after UV): 127 | share of the altered genes with increased expression (24 h after UV): 54% | fold increase in Mmp9 expression (24 h after UV exposure, Affymetrix data): 2 fold | Thbs1 expression vs vehicle-treated mice (24 h post-UV, Affymetrix probe): similar | Total number of genes changed in AG825-treated samples (Adhesion and Migration): 47 | percentage of the total number of genes altered by Erbb2 (Adhesion and Migration): (13%) | Number of genes decreased (↓) in AG825-treated samples when compared to the vehicle alone [1]: 13 | Number of genes increased (↑) in AG825-treated samples when compared to the vehicle alone [1]: 14 | Number of genes decreased (↓) in AG825-treated samples when compared to the vehicle alone [2]: 14 | Number of genes increased (↑) in AG825-treated samples when compared to the vehicle alone [2]: 4 | Number of genes decreased (↓) in AG825-treated samples when compared to the vehicle alone (Adhesion and Migration, Sham): 0 | Number of genes increased (↑) in AG825-treated samples when compared to the vehicle alone (Adhesion and Migration, Sham): 7 | Total number of genes changed in AG825-treated samples (Apoptosis): 25 | percentage of the total number of genes altered by Erbb2 (Apoptosis): (7%) | Number of genes decreased (↓) in AG825-treated samples when compared to the vehicle alone (Apoptosis, 6 h post-UV): 6 | Number of genes increased (↑) in AG825-treated samples when compared to the vehicle alone (Apoptosis, 6 h post-UV): 5 | Number of genes decreased (↓) in AG825-treated samples when compared to the vehicle alone (Apoptosis, 24 h post-UV): 4 | Number of genes increased (↑) in AG825-treated samples when compared to the vehicle alone (Apoptosis, 24 h post-UV): 6 | Number of genes decreased (↓) in AG825-treated samples when compared to the vehicle alone (Apoptosis, Sham): 2 | Number of genes increased (↑) in AG825-treated samples when compared to the vehicle alone (Apoptosis, Sham): 2 | Total number of genes changed in AG825-treated samples (Cancer): 55 | percentage of the total number of genes altered by Erbb2 (Cancer): (15%) | Number of genes decreased (↓) in AG825-treated samples when compared to the vehicle alone (Cancer, 6 h post-UV): 12 | Number of genes increased (↑) in AG825-treated samples when compared to the vehicle alone (Cancer, 6 h post-UV): 25 | Number of genes decreased (↓) in AG825-treated samples when compared to the vehicle alone (Cancer, 24 h post-UV): 7 | Number of genes increased (↑) in AG825-treated samples when compared to the vehicle alone (Cancer, 24 h post-UV): 8 | Number of genes decreased (↓) in AG825-treated samples when compared to the vehicle alone (Cancer, Sham): 3 | Number of genes increased (↑) in AG825-treated samples when compared to the vehicle alone (Cancer, Sham): 5 | Total number of genes changed in AG825-treated samples (Cell Communication): 65 | percentage of the total number of genes altered by Erbb2 (Cell Communication): (18%) | Number of genes decreased (↓) in AG825-treated samples when compared to the vehicle alone [3]: 18 | Number of genes increased (↑) in AG825-treated samples when compared to the vehicle alone [3]: 18 | Number of genes decreased (↓) in AG825-treated samples when compared to the vehicle alone [4]: 20 | Number of genes increased (↑) in AG825-treated samples when compared to the vehicle alone [4]: 5 | Number of genes decreased (↓) in AG825-treated samples when compared to the vehicle alone (Cell Communication, Sham): 1 | Number of genes increased (↑) in AG825-treated samples when compared to the vehicle alone (Cell Communication, Sham): 6 | Total number of genes changed in AG825-treated samples (Development): 55 | percentage of the total number of genes altered by Erbb2 (Development): (15%) | Number of genes decreased (↓) in AG825-treated samples when compared to the vehicle alone (Development, 6 h post-UV): 8 | Number of genes increased (↑) in AG825-treated samples when compared to the vehicle alone (Development, 6 h post-UV): 26 | Number of genes decreased (↓) in AG825-treated samples when compared to the vehicle alone (Development, 24 h post-UV): 12 | Number of genes increased (↑) in AG825-treated samples when compared to the vehicle alone (Development, 24 h post-UV): 4 | Number of genes decreased (↓) in AG825-treated samples when compared to the vehicle alone (Development, Sham): 2 | Number of genes increased (↑) in AG825-treated samples when compared to the vehicle alone (Development, Sham): 6 | Total number of genes changed in AG825-treated samples (Immune Response): 65 | percentage of the total number of genes altered by Erbb2 (Immune Response): (18%) | Number of genes decreased (↓) in AG825-treated samples when compared to the vehicle alone (Immune Response, 6 h post-UV): 42 | Number of genes increased (↑) in AG825-treated samples when compared to the vehicle alone (Immune Response, 6 h post-UV): 3 | Number of genes decreased (↓) in AG825-treated samples when compared to the vehicle alone (Immune Response, 24 h post-UV): 14 | Number of genes increased (↑) in AG825-treated samples when compared to the vehicle alone (Immune Response, 24 h post-UV): 4 | Number of genes decreased (↓) in AG825-treated samples when compared to the vehicle alone (Immune Response, Sham): 0 | Number of genes increased (↑) in AG825-treated samples when compared to the vehicle alone (Immune Response, Sham): 8 | Total number of genes changed in AG825-treated samples (Metabolism): 158 | Number of genes decreased (↓) in AG825-treated samples when compared to the vehicle alone (Metabolism, 6 h post-UV): 23 | Number of genes increased (↑) in AG825-treated samples when compared to the vehicle alone (Metabolism, 6 h post-UV): 63 | Number of genes decreased (↓) in AG825-treated samples when compared to the vehicle alone (Metabolism, 24 h post-UV): 24 | Number of genes increased (↑) in AG825-treated samples when compared to the vehicle alone (Metabolism, 24 h post-UV): 43 | Number of genes decreased (↓) in AG825-treated samples when compared to the vehicle alone (Metabolism, Sham): 10 | Number of genes increased (↑) in AG825-treated samples when compared to the vehicle alone (Metabolism, Sham): 9 | Total number of genes changed in AG825-treated samples (Pigment Biosynthesis): 6 | percentage of the total number of genes altered by Erbb2 (Pigment Biosynthesis): (2%) | Number of genes decreased (↓) in AG825-treated samples when compared to the vehicle alone [5]: 0 | Number of genes increased (↑) in AG825-treated samples when compared to the vehicle alone [5]: 5 | Number of genes decreased (↓) in AG825-treated samples when compared to the vehicle alone [6]: 0 | Number of genes increased (↑) in AG825-treated samples when compared to the vehicle alone [6]: 1 | Number of genes decreased (↓) in AG825-treated samples when compared to the vehicle alone (Pigment Biosynthesis, Sham): 3 | Number of genes increased (↑) in AG825-treated samples when compared to the vehicle alone (Pigment Biosynthesis, Sham): 0 | Total number of genes changed in AG825-treated samples (Proliferation): 36 | percentage of the total number of genes altered by Erbb2 (Proliferation): (10%)^c | Number of genes decreased (↓) in AG825-treated samples when compared to the vehicle alone (Proliferation, 6 h post-UV): 6 | Number of genes increased (↑) in AG825-treated samples when compared to the vehicle alone (Proliferation, 6 h post-UV): 21 | Number of genes decreased (↓) in AG825-treated samples when compared to the vehicle alone (Proliferation, 24 h post-UV): 3 | Number of genes increased (↑) in AG825-treated samples when compared to the vehicle alone (Proliferation, 24 h post-UV): 6 | Number of genes decreased (↓) in AG825-treated samples when compared to the vehicle alone (Proliferation, Sham): 3^b | Number of genes increased (↑) in AG825-treated samples when compared to the vehicle alone (Proliferation, Sham): 2 | Total number of genes changed in AG825-treated samples (Total Genes): 361 | Number of genes decreased (↓) in AG825-treated samples when compared to the vehicle alone (Total Genes, 6 h post-UV): 85 | Number of genes increased (↑) in AG825-treated samples when compared to the vehicle alone (Total Genes, 6 h post-UV): 133 | Number of genes decreased (↓) in AG825-treated samples when compared to the vehicle alone (Total Genes, 24 h post-UV): 59 | Number of genes increased (↑) in AG825-treated samples when compared to the vehicle alone (Total Genes, 24 h post-UV): 68 | Number of genes decreased (↓) in AG825-treated samples when compared to the vehicle alone (Total Genes, Sham): 14 | Number of genes increased (↑) in AG825-treated samples when compared to the vehicle alone (Total Genes, Sham): 25 | expression of cell cycle regulatory genes such as Ccna2, Ccnb1 and Ccnb2 (after UV): lesser responsiveness to UV | share of the altered genes with increased expression (all 361 genes): 61% | expression of proinflammatory chemokines such as Cxcl2 and Cd44 compared to vehicle-treated skin (by 24 h after UV exposure): lower | Il1 b expression: fold greater increase after UV in vehicle-treated compared to AG825-treated samples (microarray): 16 fold | expression of the anti-apoptotic genes Ghr and Ptgs2 (mouse, in vivo): suppressed | fold higher Thbs1 expression compared to corresponding control (sham-irradiated skin, Affymetrix probe): 2 fold | number of genes with altered expression (without UV irradiation): 39 | share of the altered genes with increased expression (without UV irradiation): 64%
